Data published in patent publication US9133220B2, “Boron-containing 5-arylidene-3,5-dihydro-4H-imidazol-4-ones” (Evrogen Joint Stock Company, priority 2012, dated 2015).
Values after ≈ are worked out from the molar mass of the structure shown. Like-named read-outs stand apart in the source and are kept apart here.

How the values were obtained:
[1] = cited from earlier work
[2] = Measuring spectral characteristics (absorption and emission maxima, extinction coefficients); format: physicochemical
Procedure: (§1) To measure spectral characteristics of some compounds with the formula I weighted portions of compounds p-NH2-BDI-BF2, p-dimethylamino-BDI-BF2, p-diethylamino-BDI-BF2, p-HOBDI-BF2, di-F-p-HOBDI-BF2, p-diethylamino-BDI-dimethylaminoethenyl-BF2 and p-HOBDI-dimethylaminoethenyl-BF2 were dissolved in water, ethanol and acetonitrile. Absorption spectra were measured on Varian Cary 100 Bio spectrophotometer, fluorescence spectra were measured on Varian Cary Eclipse scanning spectrofluorometer.
The values of absorption and emission maxima and molar extinction coefficients for examples of compounds with the formula I in the indicated solvents are listed in a Table 2. Emission peaks of the investigated compounds settle into a rather wide range from 485 nm for p-HOBDI-BF2 to 598 nm for p-diethylamino-BDI-dimethylamino-ethenyl-BF2.

[3] = Quantum yield of fluorescence; format: physicochemical
Procedure: as §1
The compounds p-NH2-BDI-BF2, p-HOBDI-BF2 (anionic form), di-Fp-HOBDI-BF2 (anionic form), p-diethylamino-BDI-dimethylaminoethenyl-BF2, p-HOBDI-dimethylaminoethenyl-BF2 (anionic form) have rather high quantum yields of fluorescence in water solutions.

[4] = Determination of solubility in water; format: physicochemical; conditions: thermodynamic from solid
Procedure: To determine the solubility in water of compounds an excess amount of analyzed substance was put in a known volume of a solvent and stirred for 5 hours at r.t. The obtained mixture was centrifuged, and the concentration of a compound in mother liquor was measured with spectrophotometric method on the base of molar extinction coefficients data.

[5] = Photoacidity: acidity constants of ground and excited states; format: physicochemical
Description: Photoacidity is an ability to dissociate with formation of H^+ ion under the action of visible light. Photoacidity is characterized by constants of acidity of ground and excited states. Förster's equation describes the relationship between acidity constants of ground and excited states and energy of transfer between the states.
For compounds of the formula I, containing phenolic OH-group, high photoacidity—an ability to dissociate with formation of H^+ ion under the action of visible light—is a distinctive feature. […] (^1)((Z)-4-(2-(difluoroboryl)-3,5-difluoro-4-hydroxybenzylidene)-1,2-dimethyl-1H-imidazole-5(4H)-one)

[6] = Chemical stability at high pH; format: physicochemical; conditions: pH 11, 70° C., 2 hours
Description: Compound of the general formula I differ from the majority of fluorescent dyes because of their high resistance to the action of different chemical factors—nucleophiles and high pH. […] It should be noted, that long-time heating in alkaline conditions may result in exchange of fluorine atoms from difluoroboryl residue to hydroxyl groups, however no significant change in absorption and fluorescence spectra is observed.

O=C1OC2(c3ccc(O)cc3Oc3cc(O)ccc32)c2ccc(N=C=S)cc21 [FITC]
emission peak ([1]; widely used fluorescent dyes, approximate values): 521 nm

CC1=N/C(=C\c2ccc(N(C)C)cc2B(F)F)C(=O)N1C [p-dimethylamino-BDI-BF2, (Z)-4-(4-(dimethylamino)-2-(difluoroboryl)benzylidene)-1,2-dimethyl-1H-imidazole-5(4H)-one]
shift of emission and absorption spectra with change of more polar solvent (water) to less polar (ethanol, acetonitrile) [2]: hypsochromic shift | Abs. peak ([2]; acetonitrile): 483 nm | Emis. peak ([2]; acetonitrile): 551 nm | Abs. peak ([2]; ethanol): 498 nm | Emis. peak ([2]; ethanol): 557 nm | Abs. peak ([2]; water): 507 nm | Emis. peak ([2]; water): 565 nm | Quantum yield of fluorescence ([3]; acetonitrile): 0.49 | Quantum yield of fluorescence ([3]; ethanol): 0.31 | Quantum yield of fluorescence ([3]; water): 0.05

CC1=N/C(=C\c2ccc(O)cc2B(F)F)C(=O)N1C [p-HOBDI-BF2, (Z)-4-(2-(difluoroboryl)-4-hydroxybenzylidene)-1,2-dimethyl-1H-imidazole-5(4H)-one]
Abs. peak ([2]; acetonitrile, anionic form): 521 nm | Emis. peak ([2]; acetonitrile, anionic form): 540 nm | Abs. peak ([2]; acetonitrile, neutral form): 402 nm | Emis. peak ([2]; acetonitrile, neutral form): 469 nm | ext. coef. ([2]; acetonitrile, neutral form): 31000 M⁻¹ cm⁻¹ | shift of emission and absorption spectra with change of more polar solvent (water) to less polar (ethanol, acetonitrile) ([2]; anionic form): bathochromic shift | bathochromic shift of emission and absorption spectra relative to p-HOBDI ([2]; different solvents): 30-40 nm | Abs. peak ([2]; ethanol, anionic form): 512 nm | Emis. peak ([2]; ethanol, anionic form): 532 nm | ext. coef. ([2]; ethanol, anionic form): 55000 M⁻¹ cm⁻¹ | Abs. peak ([2]; ethanol, neutral form): 416 nm | Emis. peak ([2]; ethanol, neutral form): 483 nm | ext. coef. ([2]; ethanol, neutral form): 25000 M⁻¹ cm⁻¹ | shift of emission and absorption spectra with change of more polar solvent (water) to less polar (ethanol, acetonitrile) ([2]; neutral form): hypsochromic shift | Abs. peak ([2]; water, anionic form): 485 nm | Emis. peak ([2]; water, anionic form): 520 nm | ext. coef. ([2]; water, anionic form): 47000 M⁻¹ cm⁻¹ | Abs. peak ([2]; water, neutral form): 404 nm | Emis. peak ([2]; water, neutral form): 485 nm | ext. coef. ([2]; water, neutral form): 26000 M⁻¹ cm⁻¹ | Quantum yield of fluorescence ([3]; acetonitrile): 0.73 | fluorescence lifetime ([3]; acetonitrile): 3.2 ns | Quantum yield of fluorescence ([3]; acetonitrile, anionic form): 0.73 | Quantum yield of fluorescence ([3]; water, anionic form): 0.54 | solubility at 5 h ([4]; acidic and neutral pH values, r.t.): ~1000 µM (≈ 264 µg/mL) | solubility at 5 h ([4]; acidic and neutral values of pH): 1 µM (≈ 0.264 µg/mL) | pKa ([5]; excited state): 2 | pKa ([5]; ground state, phenol group): 6.4 | effect of incubation on absorption and emission spectra [6]: doesn't affect significantly

CC1=N/C(=C\c2ccc(O)cc2)C(=O)N1C [p-HOBDI, (Z)-4-(4-hydroxybenzylidene)-1,2-dimethyl-1H-imidazole-5(4H)-one]
Quantum yield ([1]; p-HOBDI, from D. Mandal et al., J. Phys. Chem. B 108, 1102 (2004), spans water, ethanol, acetonitrile columns): Quantum yield is less than 10^−4

CCN(CC)c1ccc(/C=C2N=C(/C=C/N(C)C)N(C)C\2=O)c(B(F)F)c1 [(Z)-4-(4-(diethylamino)-2-(difluoroboryl)benzylidene)-2-((E)-2-(dimethylamino)vynil)-1-methyl-1H-imidazole-5(4H)-one]
shift of emission and absorption spectra with change of more polar solvent (water) to less polar (ethanol, acetonitrile) [2]: hypsochromic shift | Abs. peak ([2]; acetonitrile): 510 nm | Emis. peak ([2]; acetonitrile): 583 nm | Abs. peak ([2]; ethanol): 525 nm | Emis. peak ([2]; ethanol): 588 nm | Abs. peak ([2]; water): 525 nm | Emis. peak ([2]; water): 598 nm | Quantum yield of fluorescence ([3]; water): 0.35

O=C1NC=N/C1=C\c1cccn1B(F)F [(Z)-4-((1-(difluoroboryl)-1H-pyrrol-2-yl)methylene)-1H-imidazole-5(4H)-one]
Quantum yield of fluorescence ([1]; comparison values for known fluorophores): 0.81
